Assay results as given in ChEMBL document CHEMBL1201861, “Genomics of Drug Sensitity in Cancer screening data, Wellcome Trust Sanger Institute”.

Columns and labels:
Assay in all cases: cells
SK-NEP-1 = format: functional, cell-based, Homo sapiens; details: Homo sapiens, SK-NEP-1
Description: SANGER: Inhibition of human SK-NEP-1 cell growth in a cell viability assay.

NCI-H69 = format: functional, cell-based, Homo sapiens; details: Homo sapiens, NCI-H69
Description: SANGER: Inhibition of human NCI-H69 cell growth in a cell viability assay.

BT-474 = format: functional, cell-based, Homo sapiens; details: Homo sapiens, BT-474
Description: SANGER: Inhibition of human BT-474 cell growth in a cell viability assay.

PSN1 = format: functional, cell-based, Homo sapiens; details: Homo sapiens, PSN1
Description: SANGER: Inhibition of human PSN1 cell growth in a cell viability assay.

COLO-684 = format: functional, cell-based, Homo sapiens; details: Homo sapiens, COLO-684
Description: SANGER: Inhibition of human COLO-684 cell growth in a cell viability assay.

SCC-15 = format: functional, cell-based, Homo sapiens; details: Homo sapiens, SCC-15
Description: SANGER: Inhibition of human SCC-15 cell growth in a cell viability assay.

MN-60 = format: functional, cell-based, Homo sapiens; details: Homo sapiens, MN-60
Description: SANGER: Inhibition of human MN-60 cell growth in a cell viability assay.

U-87 MG = format: functional, cell-based, Homo sapiens, U-87MG ATCC; details: Homo sapiens, U-87 MG
Description: SANGER: Inhibition of human U-87-MG cell growth in a cell viability assay.

NCI-H1155 = format: functional, cell-based, Homo sapiens; details: Homo sapiens, NCI-H1155
Description: SANGER: Inhibition of human NCI-H1155 cell growth in a cell viability assay.

NCI-H2126 = format: functional, cell-based, Homo sapiens; details: Homo sapiens, NCI-H2126
Description: SANGER: Inhibition of human NCI-H2126 cell growth in a cell viability assay.

SBC-1 = format: functional, cell-based, Homo sapiens; details: Homo sapiens, SBC-1
Description: SANGER: Inhibition of human SBC-1 cell growth in a cell viability assay.

HEL = format: functional, cell-based, Homo sapiens; details: Homo sapiens, HEL
Description: SANGER: Inhibition of human HEL cell growth in a cell viability assay.

HCC1187 = format: functional, cell-based, Homo sapiens; details: Homo sapiens, HCC1187
Description: SANGER: Inhibition of human HCC1187 cell growth in a cell viability assay.

LAN-6 = format: functional, cell-based, Homo sapiens; details: Homo sapiens, LAN-6
Description: SANGER: Inhibition of human LAN-6 cell growth in a cell viability assay.

NB5 = format: functional, cell-based, Homo sapiens; details: Homo sapiens, NB5
Description: SANGER: Inhibition of human NB5 cell growth in a cell viability assay.

SW684 = format: functional, cell-based, Homo sapiens; details: Homo sapiens, SW684
Description: SANGER: Inhibition of human SW684 cell growth in a cell viability assay.

KARPAS-299 = format: functional, cell-based, Homo sapiens; details: Homo sapiens, KARPAS-299
Description: SANGER: Inhibition of human KARPAS-299 cell growth in a cell viability assay.

P30-OHK = format: functional, cell-based, Homo sapiens; details: Homo sapiens, P30-OHK
Description: SANGER: Inhibition of human P30-OHK cell growth in a cell viability assay.

KS-1 = format: functional, cell-based, Homo sapiens; details: Homo sapiens, KS-1
Description: SANGER: Inhibition of human KS-1 cell growth in a cell viability assay.

Ramos-2G6-4C10 = format: functional, cell-based, Homo sapiens; details: Homo sapiens, Ramos-2G6-4C10
Description: SANGER: Inhibition of human Ramos-2G6-4C10 cell growth in a cell viability assay.

ATN-1 = format: functional, cell-based, Homo sapiens; details: Homo sapiens, ATN-1
Description: SANGER: Inhibition of human ATN-1 cell growth in a cell viability assay.

SW 954 = format: functional, cell-based, Homo sapiens; details: Homo sapiens, SW 954
Description: SANGER: Inhibition of human SW954 cell growth in a cell viability assay.

TE-9 = format: functional, cell-based, Homo sapiens; details: Homo sapiens, TE-9
Description: SANGER: Inhibition of human TE-9 cell growth in a cell viability assay.

697 = format: functional, cell-based, Homo sapiens; details: Homo sapiens
Description: SANGER: Inhibition of human 697 cell growth in a cell viability assay.

GT3TKB = format: functional, cell-based, Homo sapiens; details: Homo sapiens, GT3TKB
Description: SANGER: Inhibition of human GT3TKB cell growth in a cell viability assay.

TE-8 = format: functional, cell-based, Homo sapiens; details: Homo sapiens, TE-8
Description: SANGER: Inhibition of human TE-8 cell growth in a cell viability assay.

AM-38 = format: functional, cell-based, Homo sapiens; details: Homo sapiens, AM-38
Description: SANGER: Inhibition of human AM-38 cell growth in a cell viability assay.

CTV-1 = format: functional, cell-based, Homo sapiens; details: Homo sapiens, CTV-1
Description: SANGER: Inhibition of human CTV-1 cell growth in a cell viability assay.

SK-N-FI = format: functional, cell-based, Homo sapiens; details: Homo sapiens, SK-N-FI
Description: SANGER: Inhibition of human SK-N-FI cell growth in a cell viability assay.

NCI-H1304 = format: functional, cell-based, Homo sapiens; details: Homo sapiens, NCI-H1304
Description: SANGER: Inhibition of human NCI-H1304 cell growth in a cell viability assay.

D283 Med = format: functional, cell-based, Homo sapiens; details: Homo sapiens, D283 Med
Description: SANGER: Inhibition of human D-283MED cell growth in a cell viability assay.

NH-12 = format: functional, cell-based, Homo sapiens; details: Homo sapiens, NH-12
Description: SANGER: Inhibition of human NH-12 cell growth in a cell viability assay.

EW-16 = format: functional, cell-based, Homo sapiens; details: Homo sapiens, EW-16
Description: SANGER: Inhibition of human EW-16 cell growth in a cell viability assay.

MHH-PREB-1 = format: functional, cell-based, Homo sapiens; details: Homo sapiens, MHH-PREB-1
Description: SANGER: Inhibition of human MHH-PREB-1 cell growth in a cell viability assay.

SW982 = format: functional, cell-based, Homo sapiens; details: Homo sapiens, SW982
Description: SANGER: Inhibition of human SW982 cell growth in a cell viability assay.

ES4 = format: functional, cell-based, Homo sapiens; details: Homo sapiens, ES4
Description: SANGER: Inhibition of human ES4 cell growth in a cell viability assay.

LB2518-MEL = format: functional, cell-based, Homo sapiens; details: Homo sapiens, LB2518-MEL
Description: SANGER: Inhibition of human LB2518-MEL cell growth in a cell viability assay.

SNU-C2B = format: functional, cell-based, Homo sapiens; details: Homo sapiens, SNU-C2B
Description: SANGER: Inhibition of human SNU-C2B cell growth in a cell viability assay.

CW-2 = format: functional, cell-based, Homo sapiens; details: Homo sapiens, CW-2
Description: SANGER: Inhibition of human CW-2 cell growth in a cell viability assay.

EC-GI-10 = format: functional, cell-based, Homo sapiens; details: Homo sapiens, EC-GI-10
Description: SANGER: Inhibition of human EC-GI-10 cell growth in a cell viability assay.

NCI-H209 = format: functional, cell-based, Homo sapiens; details: Homo sapiens, NCI-H209
Description: SANGER: Inhibition of human NCI-H209 cell growth in a cell viability assay.

NB13 = format: functional, cell-based, Homo sapiens; details: Homo sapiens, NB13
Description: SANGER: Inhibition of human NB13 cell growth in a cell viability assay.

DJM-1 = format: functional, cell-based, Homo sapiens; details: Homo sapiens, DJM-1
Description: SANGER: Inhibition of human DJM-1 cell growth in a cell viability assay.

MSTO-211H = format: functional, cell-based, Homo sapiens; details: Homo sapiens, MSTO-211H
Description: SANGER: Inhibition of human MSTO-211H cell growth in a cell viability assay.

GCIY = format: functional, cell-based, Homo sapiens; details: Homo sapiens, GCIY
Description: SANGER: Inhibition of human GCIY cell growth in a cell viability assay.

SNU1 = format: functional, cell-based, Homo sapiens; details: Homo sapiens, SNU1
Description: SANGER: Inhibition of human NCI-SNU-1 cell growth in a cell viability assay.

IA-LM = format: functional, cell-based, Homo sapiens; details: Homo sapiens, IA-LM
Description: SANGER: Inhibition of human IA-LM cell growth in a cell viability assay.

SNU-5 = format: functional, cell-based, Homo sapiens; details: Homo sapiens, SNU-5
Description: SANGER: Inhibition of human NCI-SNU-5 cell growth in a cell viability assay.

A253 cell line = format: functional, cell-based, Homo sapiens; details: Homo sapiens, A253
Description: SANGER: Inhibition of human A253 cell growth in a cell viability assay.

## OCCCNc1cc(-c2ccnc(Nc3cccc(Cl)c3)n2)ccn1
SK-NEP-1
  IC50: 80.9 nM
NCI-H69
  IC50: > 256 nM
BT-474
  IC50: > 256 nM
PSN1
  IC50: 15.2 nM
COLO-684
  IC50: 94.9 nM
SCC-15
  IC50: > 256 nM
MN-60
  IC50: 149 nM
U-87 MG
  IC50: > 256 nM
NCI-H1155
  IC50: > 256 nM
NCI-H2126
  IC50: > 256 nM
SBC-1
  IC50: > 256 nM
HEL
  IC50: 114 nM
HCC1187
  IC50: > 256 nM
LAN-6
  IC50: 149 nM
NB5
  IC50: > 256 nM
SW684
  IC50: > 256 nM
KARPAS-299
  IC50: 29.2 nM
P30-OHK
  IC50: > 256 nM
KS-1
  IC50: 14 nM
Ramos-2G6-4C10
  IC50: 59.3 nM
ATN-1
  IC50: 54.2 nM
SW 954
  IC50: 170 nM
TE-9
  IC50: > 256 nM
697
  IC50: 19.7 nM
GT3TKB
  IC50: 59 nM
TE-8
  IC50: 23.8 nM
AM-38
  IC50: > 256 nM
CTV-1
  IC50: 66 nM
SK-N-FI
  IC50: > 256 nM
NCI-H1304
  IC50: 104 nM
D283 Med
  IC50: > 256 nM
NH-12
  IC50: > 256 nM
EW-16
  IC50: 32.8 nM
MHH-PREB-1
  IC50: 58.4 nM
SW982
  IC50: 25.4 nM
ES4
  IC50: 35.1 nM
LB2518-MEL
  IC50: > 256 nM
SNU-C2B
  IC50: 104 nM
CW-2
  IC50: > 256 nM
EC-GI-10
  IC50: > 256 nM
NCI-H209
  IC50: 135 nM
NB13
  IC50: 126 nM
DJM-1
  IC50: > 256 nM
MSTO-211H
  IC50: > 256 nM
GCIY
  IC50: > 256 nM
SNU1
  IC50: > 256 nM
IA-LM
  IC50: 93.2 nM
SNU-5
  IC50: > 256 nM
A253 cell line
  IC50: 64.9 nM
